Assay results as given in patent US10590115B2, “Tetrahydroquinazoline derivatives useful as anticancer agents” (PFIZER INC., priority 2018, dated 2020).

What was measured:
[1] = target: T1, KRAS G12C in MiaPaCa2 cells (Homo sapiens, UniProt P01116, G12C); experiment: MiaPaCa2 Cell Activity Assay (Raf-1 RBD capture of active Ras, MSD); assay type: cell-based; conditions: MIAPaCa-2 cells, 6 hours treatment; assay limit is 30.0 μM
T1 construct: endogenous in cells; host or cells: MiaPaCa2
Procedure: MiaPaCa2 Cell Activity Assay
(§1) Compounds presented in the present invention lead to the accumulation of the GDP bound Ras upon treatment of human cancer cell line.
(§2) The accumulation of the GDP-bound KRAS G12C in cellular environment was measured based on the principle that KRAS G12C only binds to its downstream kinase; Raf-1 (MAP Kinase Kinase Kinase), when in its active-GTP bound state. In this state, Ras binded to a domain of Raf-1 kinase referred to as the Ras Binding Domain (RBD).
(§3) MiaPaCa2 cells were grown in DMEM medium (Gibco 11995) supplemented with 10% fetal bovine serum and 1% penicillin/streptomycin. Cells were seeded in 96-well tissue culture plates at a density of 40,000 cells/well and allowed to attach for 16-24 hours. Test compounds were prepared as a 10 mM stock in DMSO and serially diluted in 100% DMSO using a 3-fold dilution scheme. An intermediate 5× concentrated plate in complete growth medium was made and 25 μl/well was added to the 100 μl of cells for a final concentration of 0.1% DMSO. Each concentration of exemplary compound was tested in duplicate. The negative control wells were cells with control inhibitor at 10 μM, and the positive control wells were cells without drugs, DMSO only. Plates were incubated for 6 hours at 37° C., 5% CO2. Following treatment, cells were washed 3× with ice-cold PBS and 100 μl/well ice-cold 1× Assay/Lysis. Buffer with protease inhibitors was added (25 mM HEPES, pH 7.5, 150 mM NaCl, 1% NP-40, 10 mM MgCl2, 1 mM EDTA, 2% Glycerol). Following lysis samples were frozen at −80° C.
(§4) Raf-1 RBD (LJIC-1988A1) was diluted to 100 ng/well in PBS and 5 μl/well was spot coated onto MSD high bind SECTOR plates (L15XB). Plates were incubated at room temperature for 1 hour on an orbital shaker. Plates were washed with PBS/0.05% Tween-20 and 50 μl/well of thawed lysate samples were added, followed by 50 μl of 1% MSD Blocker A in PBS/0.05% Tween-20 (R93BA). Plates were incubated for 1 hour on an orbital shaker and washed with PBS/0.05% Tween-20. 25 μl/well of Anti-pan-Ras Antibody (Cell Biolabs 244003) diluted 1:3000 was added in 1% MSD Blocker A solution and plates were incubated for 1 hour on an orbital shaker and washed with PBS/0.05% Tween-20. SULFO-TAG goat anti-mouse secondary antibody (MSD R32AC) was diluted 1:500 in MSD Blocker A solution and added at 25 μL/well. Plates were incubated for 1 hour on an orbital shaker and washed with PBS/0.05% Tween-20. 150 μl/well of Read Buffer T (MSD R92TC) diluted 1:3 in H2O was added and plates were read on a Meso Scale Discovery Sector Imager S600.
(§5) KRAS signal was normalized to maximum inhibition and DMSO control values, and IC50 values were generated using a 4 parameter fit of the dose response curve. The decrease in IC50 reflects that the exemplary compound lead to a higher level of accumulation of GDP-bound KRAS G12C than another exemplary compounds at specific timepoint of treatment of cancer cell line.

[2] = target: T2, GDP-loaded kRas (1-169) G12C, C51S, C80L, C118S (Homo sapiens, UniProt P01116, C118S/C51S/C80L/G12C); experiment: Mass Spectrometry Reactivity Assay (MSRA), covalent adduct with kRas G12C; assay type: binding; conditions: 0.5 h at room temperature; 5 μM KRas protein; typical final concentration of the compounds 10 μM
T2 construct: GDP-loaded kRas (1-169) G12C, C51S, C80L, C118S
Procedure: Mass Spectrometry Reactivity Assay (MSRA)
Compounds presented in the present invention covalently bind to kRas G12C using MSRA to detect a covalent adduct of the exemplary compound and kRas G12C. GDP-loaded kRas (1-169) G12C, C51S, C80L, C118S were diluted in the protein assay buffer 25 mM Hepes pH7.5, 200 mM NaCl, 5% glycerol to concentration of 5 μM and 20 μl of protein was transferred into 96-well plate. […] See K-Ras(G12C) inhibitors allosterically control GTP affinity and effector interactions; Ostrem J M, Peters U, Sos M L, Wells J A, Shokat K M; Nature. 2013, Nov. 28; 503(7477):548-51.
Exemplary compounds dissolved in DMSO were diluted 100-fold into solution containing 20 μl of 5 μM KRas protein in the 96-well plate to initiate the reaction. Mosquito (TPP Lab tech) liquid handling robot was used to add compounds to protein solution. Typical final concentration of the compounds was 10 μM. The plates were placed on a shaker for 1 min at RT, sealed and incubated at room temperature for specified time period. 5 μl of reaction mix was added to 10 μl of 0.2% formic acid stop solution and mixed well. Typical end points were 30, 120, 600 and 1440 min.
Data were collected using Waters Acquity H-class UPLC system/Xevo G2-XS TOF mass spectrometer. The protein was injected in their liquid phase onto a Bruker Microtrap protein column TR1/15109/03. The following buffers were used to set LC gradient: Buffer A: 0.2% formic acid H20; B: 0.2% formic acid CAN. The protein was eluted from the column using the following LC Gradient: 0-0.4 min, 10% B to 30% B; 0.4 min-2.4 min, to 90% B, 2.5 min, 10% B, 3 min, 10% B. Initial data analysis was performed using MaxEnt software right after data acquisition.
The standard auto processing function was used to define percentage of unmodified and modified kRas protein using MexEnt software right after data acquisition. The highest peak was defined as 100% while smaller peak as assigned the number defined by autoprocessing function. The percent of modification corresponding to modified with exemplary compound and unmodified KRas GDP-loaded kRas (1-169) G12C, C51S, C80L, C118S were exported to Xcel data analysis software.
The percent of modified protein at the defined concentration of exemplary compound was calculated using the following formula: % mod=Num of modified peak/Sum of modified+unmodified.

[3] = target: T3, KRAS G12C in H358 cells (Homo sapiens, UniProt P01116, G12C); experiment: H358 Cell Activity Assay (Raf-1 RBD capture of active Ras, MSD); assay type: cell-based; conditions: 6 hours treatment
T3 construct: endogenous in cells; host or cells: H358
Procedure: as §1, §2
as §3, with “H358” for “MiaPaCa2”, “RPMI 1640” for “DMEM”, “11875)” for “11995)”
as §4, §5

| SMILES | IC50 [1] [µM] | % Modification (0.5 h) [2] [%] | IC50 [3] [µM] |
| --- | --- | --- | --- |
| C=CC(=O)N1CCN(c2nc(OCCN(C)C)nc3c2C[C@@H](C)[C@H](c2c(C)ccc4[nH]ncc24)C3)CC1 [Example C6, 1-{4-[(6R,7R)-2-[2-(dimethylamino)ethoxy]-6-methyl-7-(5-methyl-1H-indazol-4-yl)-5,6,7,8-tetrahydroquinazolin-4-yl]piperazin-1-yl}prop-2-en-1-one] | 0.26 | 66 | 0.521 |
| C=CC(=O)N1CCN(c2nc(OCCCN(C)C)nc3c2C[C@@H](C)[C@H](c2c(Cl)c(C)cc4[nH]ncc24)C3)CC1 (relative stereo) [Example C7, 1-(4-{(6R,7R)-rel-7-(5-chloro-6-methyl-1H-indazol-4-yl)-2-[3-(dimethylamino)propoxy]-6-methyl-5,6,7,8-tetrahydroquinazolin-4-yl}piperazin-1-yl)prop-2-en-1-one] | 0.088 | 73 | 0.106 |
| C=CC(=O)N1CCN(c2nc(OCCN(C)C)nc3c2C[C@@H](C)[C@H](c2c(Cl)c(C)cc4[nH]ncc24)C3)CC1 (relative stereo) [Example C8, 1-(4-{(6R,7R)-rel-7-(5-chloro-6-methyl-1H-indazol-4-yl)-2-[2-(dimethylamino)ethoxy]-6-methyl-5,6,7,8-tetrahydroquinazolin-4-yl}piperazin-1-yl)prop-2-en-1-one] | 0.14 | 65 | 0.116 |
| C=CC(=O)N1CCN(c2ncnc3c2C[C@@H](C)[C@H](c2c(C)ccc4[nH]ncc24)C3)CC1 [Example A5, 1-{4-[(6R,7R)-6-methyl-7-(5-methyl-1H-indazol-4-yl)-5,6,7,8-tetrahydroquinazolin-4-yl]piperazin-1-yl}prop-2-en-1-one] | 0.64 | 77 | 0.78 |
| C=CC(=O)N1CCN(c2nc(OC[C@H]3CCCN3C)nc3c2C[C@@H](C)[C@H](c2c(C)ccc4[nH]ncc24)C3)CC1 (relative stereo) [Example C10, 1-{4-[(6R,7R)-rel-6-methyl-7-(5-methyl-1H-indazol-4-yl)-2-{[(2R)-1-methylpyrrolidin-2-yl]methoxy}-5,6,7,8-tetrahydroquinazolin-4-yl]piperazin-1-yl}prop-2-en-1-one] | 0.236 | 80 | 0.129 |
| C=CC(=O)N1CCN(c2nc(OCCCN(C)C)nc3c2C[C@@H](C)[C@H](c2c(C)ccc4[nH]ncc24)C3)CC1 [Example C5, 1-{4-[(6R,7R)-2-[3-(dimethylamino)propoxy]-6-methyl-7-(5-methyl-1H-indazol-4-yl)-5,6,7,8-tetrahydroquinazolin-4-yl]piperazin-1-yl}prop-2-en-1-one] | 0.214 | 74 | 0.468 |
| C=CC(=O)N1CCN(c2nc(N3CC(N(C)C)C3)nc3c2C[C@@H](C)[C@H](c2c(Cl)ccc4[nH]ncc24)C3)CC1 (single isomer, unassigned) [Example F10] | 0.169 |  | 0.395 |

Second part, the compound after the results:

| IC50 [1] [µM] | % Modification (0.5 h) [2] [%] | IC50 [3] [µM] | SMILES |
| --- | --- | --- | --- |
| 0.06 | 84 | 0.064 | C=CC(=O)N1CCN(c2nc(N3CC(N(C)C)C3)nc3c2C[C@@H](C)[C@H](c2c(Cl)c(C)cc4[nH]ncc24)C3)C[C@H]1C [Example F12, 1-[(2R)-4-{(6R,7R)-7-(5-chloro-6-methyl-1H-indazol-4-yl)-2-[3-(dimethylamino)azetidin-1-yl]-6-methyl-5,6,7,8-tetrahydroquinazolin-4-yl}-2-methylpiperazin-1-yl]prop-2-en-1-one] |
| 0.429 | 59 | 0.36 | C=CC(=O)N1CCN(c2nc(N3CC(N(C)C)C3)nc3c2C[C@@H](C)[C@H](c2c(C)ccc4[nH]ncc24)C3)CC1 (relative stereo) [Example F1, 1-{4-[(6R,7R)-rel-2-[3-(dimethylamino)azetidin-1-yl]-6-methyl-7-(5-methyl-1H-indazol-4-yl)-5,6,7,8-tetrahydroquinazolin-4-yl]piperazin-1-yl}prop-2-en-1-one] |
| 0.108 | 82 | 0.062 | C=CC(=O)N1CCN(c2nc(N3CC(N(C)C)C3)nc3c2C[C@@H](C)[C@H](c2c(Cl)c(C)cc4[nH]ncc24)C3)CC1 [Example F7, 1-(4-{(6R,7R)-7-(5-chloro-6-methyl-1H-indazol-4-yl)-2-[3-(dimethylamino)azetidin-1-yl]-6-methyl-5,6,7,8-tetrahydroquinazolin-4-yl}piperazin-1-yl)prop-2-en-1-one] |
| 0.126 | 83 | 0.116 | C=CC(=O)N1CCN(c2nc(N3CC(N(C)C)C3)nc3c2C[C@@H](C)[C@H](c2c(Cl)c(C)cc4[nH]ncc24)C3)CC1 (relative stereo) [Example F6, 1-(4-{(6R,7R)-rel-7-(5-chloro-6-methyl-1H-indazol-4-yl)-2-[3-(dimethylamino)azetidin-1-yl]-6-methyl-5,6,7,8-tetrahydroquinazolin-4-yl}piperazin-1-yl)prop-2-en-1-one] |
